Experimental data from publication PMC9395446, “First-in-human phase 1/1b study to evaluate sitravatinib in patients with advanced solid tumors” (Investigational New Drugs, 2022).
“And” between values parts separate entries of the source, which are not always exact repeats. Equal entries are not always repeated.

System: advanced solid tumors
Experiment: Clinical activity by RECIST v1.1 (ORR, DoR, PFS, OS), phase 1b
Type: in vivo, human
Method: Clinical activity was assessed by objective response rate (ORR) according to Response Evaluation Criteria In Solid Tumors (RECIST) v1.1. Additional endpoints included duration of response (DoR), progression-free survival (PFS) and overall survival (OS) in phase 1b cohorts of patients based on diagnosis and tumor molecular alterations. An exploratory post-hoc analysis of patients with non-squamous NSCLC who experienced disease progression on prior checkpoint inhibitor (CPI) therapy was performed.
Disease status was evaluated according to RECIST v1.1 at baseline and every three cycles in phase 1, and every two cycles (6-week intervals) in phase 1b. Assessments were performed until objective disease progression was documented or until subsequent anti-cancer therapy started (see Supplementary Information [Sect. 1.3] for details).
DoR, PFS and OS were reported descriptively and summarized using the Kaplan–Meier method. DoR was defined as the time from first documentation of objective tumor response (complete response [CR] or partial response [PR]) until first documentation of disease progression per RECIST 1.1 or death (any cause). PFS was defined as the time from first dose of study treatment until progressive disease as defined by RECIST 1.1 or death (any cause). OS was defined as the time from first dose of study treatment until death (any cause).

[1] = phase 1b NSCLC KIF5B-RET (n=13)
[2] = phase 1b NSCLC RET rearrangement (n=23)
[3] = phase 1b all molecular alterations (n=113)
[4] = phase 1b mITT overall (n = 161)
[5] = phase 1b overall RET rearrangement (n=31)

COCCNCc1ccc(-c2cc3nccc(Oc4ccc(NC(=O)C5(C(=O)Nc6ccc(F)cc6)CC5)cc4F)c3s2)nc1 [sitravatinib, Sitravatinib]
OS median (95% CI) (phase 1b MET alteration (n=17)): 7.3 (3.5, 13.9) months | PD (progressive disease) (phase 1b MET alteration (n=17)): 2 (11.8) n (%) | PFS 6-month KM estimate (95% CI) (phase 1b MET alteration (n=17)): 16.4 (2.8, 40.0) % | PFS median (95% CI) (phase 1b MET alteration (n=17)): 2.9 (1.9, 4.3) months | PR (phase 1b MET alteration (n=17)): 2 (11.8) n (%) | CR [1]: 0 n (%) | DoR 6-month KM estimate (95% CI) [1]: 100.0 (100.0, 100.0) % | DoR median (95% CI) [1]: 10.2 (NE, NE) months | NE [1]: 3 (23.1) n (%) | ORR [1]: 1 (7.7) n (%) | OS 12-month KM estimate (95% CI) [1]: 79.5 (39.3, 94.5) % | OS median (95% CI) [1]: 27.2 (10.9, 33.8) months | PD (progressive disease) [1]: 3 (23.1) n (%) | PFS 6-month KM estimate (95% CI) [1]: 36.4 (11.2, 62.7) % | PFS median (95% CI) [1]: 5.7 (1.5, 13.5) months | PR [1]: 1 (7.7) n (%) | CR [2]: 0 n (%) | DoR 6-month KM estimate (95% CI) [2]: 25.0 (0.9, 66.5) % | DoR median (95% CI) [2]: 2.3 (1.8, 10.2) months | NE [2]: 3 (13.0) n (%) | ORR [2]: 4 (17.4) n (%) | OS 12-month KM estimate (95% CI) [2]: 73.2 (46.6, 88.1) % | OS median (95% CI) [2]: 27.2 (10.9, NE) months | PD (progressive disease) [2]: 3 (13.0) n (%) | PFS 6-month KM estimate (95% CI) [2]: 40.3 (19.5, 60.4) % | PFS median (95% CI) [2]: 5.7 (3.0, 13.5) months | PR [2]: 4 (17.4) n (%) | CR (phase 1b RCC (n=38)): 0 n (%) | DoR 6-month KM estimate (95% CI) (phase 1b RCC (n=38)): 100.0 (100.0, 100.0) % | DoR median (95% CI) (phase 1b RCC (n=38)): 13.2 (6.8, NE) months | NE (phase 1b RCC (n=38)): 3 (7.9) n (%) | ORR (phase 1b RCC (n=38)): 8 (21.1) n (%) | OS 12-month KM estimate (95% CI) (phase 1b RCC (n=38)): 60.1 (41.3, 74.6) % | OS median (95% CI) (phase 1b RCC (n=38)): 29.3 (10.8, 33.4) months | PD (progressive disease) (phase 1b RCC (n=38)): 4 (10.5) n (%) | PFS 6-month KM estimate (95% CI) (phase 1b RCC (n=38)): 62.6 (43.5, 76.9) % | PFS median (95% CI) (phase 1b RCC (n=38)): 9.5 (4.3, 11.7) months | PR (phase 1b RCC (n=38)): 8 (21.1) n (%) | CR [3]: 0 n (%) | DoR 6-month KM estimate (95% CI) [3]: 53.0 (20.9, 77.3) % | DoR median (95% CI) [3]: 7.0 (1.9, 15.2) months | ORR [3]: 11 (9.7) n (%) | OS 12-month KM estimate (95% CI) [3]: 36.1 (26.3, 45.9) % | OS median (95% CI) [3]: 9.9 (7.1, 10.9) months | PD (progressive disease) [3]: 23 (20.4) n (%) | PFS 6-month KM estimate (95% CI) [3]: 28.5 (19.6, 38.0) % | PFS median (95% CI) [3]: 3.6 (2.7, 4.4) months | PR [3]: 11 (9.7) n (%) | CR [4]: 0 n (%) | DoR 6-month KM estimate (95% CI) [4]: 71.3% and 71.3 (44.0, 87.0) % | DoR median (95% CI) [4]: 8.2 months and 8.2 (4.3, 16.6) months | NE (non-evaluable) [4]: 26 (16.1) n (%) | ORR [4]: 19 (11.8) n (%) | OS 12-month KM estimate (95% CI) [4]: 41.3% and 41.3 (32.7, 49.6) % | OS median (95% CI) [4]: 10.7 months and 10.7 (9.9, 11.9) months | PD (progressive disease) [4]: 28 (17.4) n (%) | PFS 6-month KM estimate (95% CI) [4]: 37.5% and 37.5 (29.2, 45.9) % | PFS median (95% CI) [4]: 4.3 months and 4.3 (3.1, 5.6) months | PR [4]: 19 (11.8) n (%) | CR [5]: 0 n (%) | DoR 6-month KM estimate (95% CI) [5]: 40.0 (5.2, 75.3) % | DoR median (95% CI) [5]: 2.8 (1.8, 10.2) months | NE [5]: 3 (9.7) n (%) | ORR [5]: 5 (16.1) n (%) | OS 12-month KM estimate (95% CI) [5]: 66.5 (43.3, 82.0) % | OS median (95% CI) [5]: 18.2 (10.9, 33.8) months | PD (progressive disease) [5]: 5 (16.1) n (%) | PFS 6-month KM estimate (95% CI) [5]: 39.5 (21.8, 56.7) % | PFS median (95% CI) [5]: 5.3 (3.0, 6.7) months | PR [5]: 5 (16.1) n (%)
